Patent publication US7906709B2, “Methods for breeding glyphosate resistant plants and compositions thereof” (priority 2006, dated 2011)

Assays:
R line of rigid ryegrass = experiment: Dose response study of plant injury, R line; type: in vivo, Lolium rigidum
Procedure: (§1) A dose response study is conducted on the R and S lines of rigid ryegrass. The rates of glyphosate applied varied from 0.125×, 0.25×, 0.5×, 1×, 2×, 4×, 6×, 8×, 10×, to 12×. The sprayed solutions and application procedures are similar to those described previously. Plants are evaluated for visual injury at 4 WAT. Data (4 WAT) from two experiments with 8 replications of each treatment are analyzed by non-linear regression and fitted to a log-logistic model:
(§2) [formula] where y is predictive of plant injury (% of control), X50=dose required to obtain 50% injury and b is the slope at X50.

[1] = tested on: backcrossed turfgrass samples; experiment: Glyphosate resistance phenotype of backcrossed turfgrass samples; type: in vivo
Excerpt: In some embodiments, the germplasm can have more than one glyphosate resistant allele. At least one of the glyphosate resistant alleles is the single nucleotide polymorphism (“SNP”) for the EPSPS gene at nt301 of SEQ. ID. NO. 1. By sequencing of the EPSPS from sensitive and resistant ryegrass biotypes the SNP was identified. A change from cytosine to thymine at this position changes the amino acid from proline to serine. The SNP at nt301 of SEQ. ID. NO. 1 can be used as a marker to identify plants that carry the allele of the resistant form of EPSPS. As shown in Table 1 and highlighted in the Examples below, a second allele can contribute to the glyphosate resistance.
Having both the first allele (the SNP) and the second allele in a plant such as, for example, a turf grass, can increase resistance to glyphosate. In some embodiments, the second allele may be attributed to glyphosate oxidoreductase (“GOX”) enzyme encoded by a GOX gene. Only one of the alleles may be needed to produce a glyphosate resistant plant such as for example, a turfgrass. In some embodiments, the second allele can be identified as the Gly-Rest 2 gene. The Gly-Rest 2 gene encodes a glyphosate resistant protein that can be identified as the Gly-Resist Protein (“GRP”) which is different from the glyphosate resistant EPSPS. To identify which plants have only the GRP protein, the following is an example of an analysis that can be useful. The plants that have been crossed with a known glyphosate resistant parent are grown. A herbicidally effective amount of glyphosate is applied to the plants. The plants that survive the application are selected and a part of the plant is then used to determine if a biomarker for glyphosate resistant EPSPS is present. An example of such an analysis is discussed in the examples below. If the biomarker is present, then the plant has at least glyphosate resistant EPSPS and may have GRP. […] A biomarker analysis for GRP can be designed and designing such an analysis is well within the knowledge of those skilled in the art.

[2] = tested on: R biotype of the California rigid ryegrass; experiment: Glyphosate drops on leaves, resistant biotype; type: in vivo, Lolium rigidum; settings: three 2 µl drops on two leaves, corresponds to 1.12 kg ai ha^-1; one week after treatment; ROUNDUP ULTRA (isopropylamine salt)
Procedure: Rigid ryegrass (Lolium rigidum Gaud.) plants are collected from an almond orchard intensively treated with glyphosate since 1984. The collected plants are grown and seed produced in greenhouse. The resistant, intermediate and susceptible biotypes are selected in the first generation using 1.12, 2.24, and 3.36 kg ai ha^−1 rates of glyphosate. Further selection is continued with a high glyphosate rate (8.96 kg ai ha^−1) to select for the resistant and with the low rate (0.28 kg ai ha^−1) to select for the susceptible individuals. The resistant (R) and susceptible (S) biotypes used in this example are generated from the 5th and 4th cycle, respectively.
R and S biotypes of the California rigid ryegrass are grown individually to the fully vegetatively mature stage prior to seedhead formation. In one experiment, two fully mature leaves of each plant (one R and one S biotypes) are treated with three 2 μl drops of glyphosate (glyphosate isopropylamine salt, ROUNDUP ULTRA™, Monsanto Co., St. Louis, Mo.) solution applied to the upper leaf surface. This corresponds to a field rate of 1.12 kg ai ha^−1 glyphosate at a volume of 187 L ha^−1 and pressure of 172.5 kPa. One week after treatment, the S biotype is dead, but no injury is observed on the R biotype.

perennial ryegrass = experiment: Glyphosate sensitivity of perennial ryegrass parent; type: in vivo, Lolium perenne; settings: sensitive parent
Procedure: The R biotype of California rigid ryegrass, which survived 8× glyphosate and perennial ryegrass, which died from 0.25× of glyphosate, are grown individually in 950-ml pots with professional planting mix media as discussed above. Plants are maintained in greenhouse with supplemental light, watered daily, and fertilized weekly with NPK water soluble fertilizer (20-20-20). At the mature vegetative stage, perennial ryegrass plants are vernalized in the growth chamber with the temperature 4 ±1 C, 8 h day and 16 h night. After 4 weeks vernalization, the plants are removed and maintained in greenhouse until flowering.
Segregation of glyphosate sensitivity in the F2 population is illustrated in FIG. 4. The percentage of the sensitive plants in F2 (16 percent) is higher than expected due to the glyphosate rate (0.5×) exceeded the sensitivity level of sensitive parents.

[3] = tested on: F2 population from cross between perennial ryegrass and glyphosate resistant rigid ryegrass; experiment: Glyphosate sensitivity of F2 hybrid population; type: in vivo, Lolium perenne x Lolium rigidum; settings: 0.5× glyphosate; 3 WAT
Procedure: The population of F2 is evaluated for glyphosate sensitivity with 0.5× glyphosate. Severely injured and dead plants are recorded 3 weeks after treatment (WAT) and are designated similar to the sensitive (S) parent. The survivors are re-acclimated for further evaluation at 8× glyphosate. The survivors from 8× glyphosate are designated similar to resistant (R) parent. The rest of the population that responded between S and R are identified as intermediate (I).

S line of rigid ryegrass = experiment: Dose response study of plant injury, S line; type: in vivo, Lolium rigidum; settings: visual injury 4 WAT, 1× = 1.12 kg ai ha^-1
Procedure: as §1, §2

With `O=C(O)CNCP(=O)(O)O` [glyphosate, N-(phosphonomethyl) glycine] the survival (R line of rigid ryegrass; R biotype, 8× glyphosate) was “survived”, the “ratio of glyphosate rates between the R and S lines for 50% injury” value (R line of rigid ryegrass; R line versus S line, 4 WAT) was greater than 100 fold and the “glyphosate rate for 50% injury” value (R line of rigid ryegrass; R line, visual injury 4 WAT, 1× = 1.12 kg ai ha^-1) was 11 ×. The “Phenotype (Dead)” value ([1]; sample 1 S control, SNP No) was 1X, the “Phenotype (Dead)” value ([1]; sample 2 R control, SNP Yes) was 8X and the “Phenotype (Dead)” value ([1]; sample 3, SNP No) was 2X. The “Phenotype (Dead)” value ([1]; sample 4, SNP Yes) was 2X, the “Phenotype (Dead)” value ([1]; sample 5, SNP Yes) was 8X and the “Phenotype (Dead)” value ([1]; sample 6, SNP No) was 1X. The “Phenotype (Dead)” value ([1]; sample 7, SNP No) was 4X, the “Phenotype (Dead)” value ([1]; sample 8, SNP No) was 1X and the “Phenotype (Dead)” value ([1]; sample 9, SNP Yes) was 4X. The “Phenotype (Dead)” value ([1]; sample 10, SNP No) was 4X, the “Phenotype (Dead)” value ([1]; sample 11, SNP Yes) was 4X and the “Phenotype (Dead)” value ([1]; sample 12, SNP Yes) was 4X. The “Phenotype (Dead)” value ([1]; sample 13, SNP No) was 1X, the “Phenotype (Dead)” value ([1]; sample 14, SNP No) was 2X and the “Phenotype (Dead)” value ([1]; sample 15, SNP Yes) was 4X. The “Phenotype (Dead)” value ([1]; sample 16, SNP Yes) was 4X, the “Phenotype (Dead)” value ([1]; sample 17, SNP Yes) was 6X and the “Phenotype (Dead)” value ([1]; sample 18, SNP Yes) was 2X. For the same molecule, the “Phenotype (Dead)” value ([1]; sample 19, SNP No) was 4X, the “Phenotype (Dead)” value ([1]; sample 20, SNP No) was 4X and the “Phenotype (Dead)” value ([1]; sample 21, SNP No) was 4X. For the same molecule, the “Phenotype (Dead)” value ([1]; sample 22 S control, SNP No) was 1X, the “Phenotype (Dead)” value ([1]; sample 23 R control, SNP Yes) was 8X and the Plant injury [2] was “no injury”. For the same molecule, the “sensitivity level (glyphosate rate from which plants died)” value (perennial ryegrass) was 0.25 ×, the “percentage of the sensitive plants in F2” value [3] was 16% and the “glyphosate rate for 50% injury” value (S line of rigid ryegrass) was 0.1 ×.
